Experiments:
HCT116 cells [1] = assay: EdU incorporation assay; format: cell-based, human; settings: 24 h treatment, concentration-dependent
Method: (§1) The proliferative inhibitory ability of YLT192 on tumor cells was investigated. […] Inhibition of cell proliferation is a possible approach for cancer treatment. EdU incorporation assay was performed to investigate the anti-proliferative effects of YLT192 against U251 and HCT116 cells.
(§2) Figure 4 Inhibitory effects of YLT192 on tumor cells. (A) YLT192 inhibited U251 and HCT116 cells proliferation. The EdU incorporation assay was conducted on U251 and HCT116 cells after treated with YLT192 for 24 hours. The EdU-positive (red fluorescent staining) cells and Hoechst staining (blue fluorescent staining) cells represented proliferating and total cells in the fluorescent images, respectively (100×). Quantification was shown on the right panels. (B) YLT192 induced apoptosis of HCT116 cells. HCT116 cells were treated with YLT192 or vehicle for 48 hours followed by flow cytometric analysis of annexin V-FITC and PI staining. The proportion of early apoptotic cells (annexin V positive) and late apoptotic cells (annexin V and PI positive cells) were shown. Typical apoptosis-related proteins caspase 3 and Bax were detected by western blot. Each has the expression of β-actin as internal control. […] U251 and HCT116 cells were treated with YLT192 or vehicle for 48 hours and the expression of protein in different signaling pathways were detected by western blot with specific antibodies. […]

U251 cells = assay: EdU incorporation assay; format: cell-based, human; settings: 24 h treatment, concentration-dependent
Method: as §1, §2

VEGFR2 = VEGFR2 (Homo sapiens, UniProt P35968); assay: Radiometric kinase assay (Millipore Kinase Profile Service); format: biochemical; design: purchased Millipore (Kinase Profile Service, UK); settings: means ± SD, two independent experiments, read-out: inhibition rate at 1 μM (%)
Chain of VEGFR2 (P35968 20-1356): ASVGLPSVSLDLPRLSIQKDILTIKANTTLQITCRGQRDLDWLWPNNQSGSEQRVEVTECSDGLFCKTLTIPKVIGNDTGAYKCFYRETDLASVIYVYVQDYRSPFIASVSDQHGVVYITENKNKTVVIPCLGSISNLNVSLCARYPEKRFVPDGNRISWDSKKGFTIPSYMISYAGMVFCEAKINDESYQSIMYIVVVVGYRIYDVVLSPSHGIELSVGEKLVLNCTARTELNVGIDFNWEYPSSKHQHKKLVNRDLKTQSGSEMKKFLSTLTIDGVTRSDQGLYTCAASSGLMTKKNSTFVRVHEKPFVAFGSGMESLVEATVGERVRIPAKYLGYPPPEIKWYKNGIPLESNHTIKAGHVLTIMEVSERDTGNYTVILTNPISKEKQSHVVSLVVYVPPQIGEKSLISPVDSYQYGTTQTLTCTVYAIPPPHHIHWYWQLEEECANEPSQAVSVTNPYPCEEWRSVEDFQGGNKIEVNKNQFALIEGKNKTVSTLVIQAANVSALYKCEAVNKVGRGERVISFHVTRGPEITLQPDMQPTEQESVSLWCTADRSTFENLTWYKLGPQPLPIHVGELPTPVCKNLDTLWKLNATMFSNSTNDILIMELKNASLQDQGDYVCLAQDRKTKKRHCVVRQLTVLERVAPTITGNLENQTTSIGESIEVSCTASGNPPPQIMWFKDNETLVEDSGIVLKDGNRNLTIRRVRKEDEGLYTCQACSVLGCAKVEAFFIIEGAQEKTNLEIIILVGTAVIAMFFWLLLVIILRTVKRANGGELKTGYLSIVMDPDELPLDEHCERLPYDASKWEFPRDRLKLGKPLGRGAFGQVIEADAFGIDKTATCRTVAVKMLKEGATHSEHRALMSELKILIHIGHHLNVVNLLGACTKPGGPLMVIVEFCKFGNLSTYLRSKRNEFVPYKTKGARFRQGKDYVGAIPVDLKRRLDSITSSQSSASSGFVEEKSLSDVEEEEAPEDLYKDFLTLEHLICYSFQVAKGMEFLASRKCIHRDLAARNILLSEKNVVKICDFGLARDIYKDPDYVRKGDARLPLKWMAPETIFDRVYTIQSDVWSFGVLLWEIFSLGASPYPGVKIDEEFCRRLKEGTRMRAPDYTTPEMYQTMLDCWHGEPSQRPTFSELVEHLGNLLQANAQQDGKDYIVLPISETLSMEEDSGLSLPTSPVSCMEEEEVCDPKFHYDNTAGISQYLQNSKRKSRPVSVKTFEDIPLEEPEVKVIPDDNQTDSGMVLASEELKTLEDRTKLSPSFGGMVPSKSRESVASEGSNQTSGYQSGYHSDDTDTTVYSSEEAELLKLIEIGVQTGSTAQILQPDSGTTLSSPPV
Method: YLT192 was designed and synthesized in the State Key Laboratory of Biotherapy, Sichuan University (Sichuan, China). Its structural formula and synthesis route was shown in Fig. 1A and Supplementary Figure S1, respectively. The kinase inhibitory activity of YLT192 was measured by the use of radiometric assays provided by Kinase Profile Service (Millipore, UK). The effects of YLT192 on kinase activity were detected using the scintillation proximity assay method at an enzymatic level. […] In addition, the inhibitory activity of YLT192 was examined against platelet-derived growth factor receptor (PDGFR)-related kinases because of their structural similarity to the VEGFR2. […] Moreover, excellent selectivity for VEGFR2 was evident compared with a range of unrelated tyrosine and serine/threonine kinases, including fibroblast growth factor receptor 3, polo-like kinase 1, aurora-A, Axl, MET, protein kinase A, c-RAF etc.

[2] = mouse, in vivo
Method: All the HCT116 model mice were sacrificed after 24 days of treatment.
During the treatment of human colorectal carcinoma HCT116 xenograft on nude mice, they were also observed every day to investigate the side effects and toxicities after YLT192's longer time administration. Finally, serum biochemistry, hematological analysis, organ coefficients and histological examinations of heart, liver, spleen, lung, and kidney were carried out after dissection. Serum chemistry and hematological analysis was carried out.
in normal tissues. After the treatment of HCT116 xenograft, heart, liver, spleen, lung
and kidney of the mice were isolated and stained with H&E (n=6 mice per group).
Scale bars represent 50μm.
(1 picture or pasted object on this page, not shown here)

HCT116 cells [3] = assay: Western blot of apoptosis-related proteins caspase 3 and Bax; format: cell-based, human; settings: 48 hours
Method: as §2, with “control. The full size blots were shown in the Supplemental Figure S6 online.” for “control.”
Supplementary Figure S7. […] HCT116 cells were treated with YLT192 or vehicle for 48 hours and then typical apoptosis-related proteins caspase 3 and Bax were detected by western blot. […]

HUVEC = assay: Capillary-like tube formation assay; format: cell-based, human; settings: designed concentrations; 6 hours; Matrigel
Method: To elucidate the possible mechanisms of angiogenesis inhibition, tube formation ability of ECs, which is a critical step in the process of angiogenesis, was assessed in HUVEC in vitro.
The anti-angiogenesis ability of YLT192 in vitro was evaluated using capillary tube formation assay as described previously. Briefly, 96-well plate was pre-incubated with Matrigel at 37°C for 45 minutes. Then HUVECs (2 × 10^4 cells) suspended in EGM2 medium were seeded onto the Matrigel. They were treated with various concentrations of YLT192. After 6 hours incubation at 37°C, tube formation was assessed with an OLYMPUS inverted digital camera in low power fields (50×). Vandetanib served as positive control. The assay was replicated 3 times.

For `CNC(=O)c1cc(Oc2ccc(NC(=O)c3cccc(OC)c3)cc2)ccn1` [YLT192], which “percentage of proliferating cells, EdU incorporation” value (HCT116 cells [1]) is on record?
Its value is “decreased a lot”.

And the “percentage of proliferating cells, EdU incorporation” value (U251 cells)?
Its value is “decreased a lot”.

And the inhibition at 1 µM (VEGFR2)?
Its inhibition at 1 µM is 93 ± 3%.

And the “adverse effects, such as diarrhea or toxic death” value [2]?
Its value is “did not observed adverse effects”.

What about the “microscopic examination of the heart, liver, spleen, lung, and kidney” value [2] of the same compound?
Its value is “no pathological changes”.

What about the “expression of pro-apoptotic Bax” value (HCT116 cells [3]) of the same compound?
Its value is “increased”.

And the “pro-caspase-3 and its pro-apoptotic cleaved forms” value (HCT116 cells [3])?
Its value is “a reduction of pro-caspase-3 and an increase in levels of its pro-apoptotic cleaved forms”.

What about the “tube formation of HUVEC” value (HUVEC) of the same compound?
Its value is “strongly inhibited”.

From article PMC4129416, “YLT192, a Novel, Orally Active Bioavailable Inhibitor of VEGFR2 Signaling with Potent Antiangiogenic Activity and Antitumor Efficacy in Preclinical Models” (Scientific Reports, 2014)
